Values of other authors, collected in patent US20210213050A1, “Compositions and Methods for the Removal of Extraneous Calcium Hydroxyapatite” (HENRY FORD HEALTH SYSTEM, priority 2018, published 2021).

What was measured:
[1] = fold higher than CaHA; proposed mechanism

With `O=S([O-])([O-])=S.[Ca+2]` [calcium thiosulfate salt, calcium thiosulfate] as the compound, how does the “solubility of calcium thiosulfate salt relative to CaHA” value [1] read?
The value was 250- to 100,000 fold.

With `O=S([O-])S(=O)(=O)[O-].[Na+].[Na+]` [SMB, sodium metabisulfite] as the compound, how does the “CaHA remaining after topical treatment alone” value (porcine skin, topical SMB alone, histology after approximately 24 hours) read?
Its value is “approximately 50%”.

Which results are given for `O=S([O-])([O-])=S.[Na+].[Na+]` [sodium thiosulfate]?
ability to dissolve previously injected CaHA microspheres (porcine skin samples injected subdermally with CaHA, intralesional sodium thiosulfate 0.2 mL, 12.5 g/50 mL, alone or with topical sodium metabisulfite): able to dissolve previously injected CaHA microspheres; visible CaHA microspheres on histologic analysis of the treated area (porcine skin, intralesional sodium thiosulfate, 24 hours later): no visible CaHA microspheres were observed
